The results in this text go back to patent US20160326558A1, “Process for Stimulating Hyaluronic Acid Production with Ascorbic Acid Derivatives and the Composition Thereof” (CORUM INC., priority 2012, published 2016).

For this assay, the system named is mouse fibroblast (3T3). The assay can be described thus: Stimulating hyaluronic acid production in mouse fibroblast, R&D HA-ELISA (Examples 3 and 5). The format is cell-based. As to conditions: for Hyaluronic Acid Content Stimulated, Average / Hyaluronic Acid Content Stimulated, single entries: 72 h, vs negative control = 100%, Table 5. Here is the method:
Complete medium is used in cell seeding stage. The confluent 3T3 cells are rinsed with sterile D-PBS, and trypsinize all cells and perform cell counting. Then, dilute the cell density to 4E+04/mL and seed 0.5 mL cell liquid (equals to 2E+04 cells) each well in 24 well plates. Incubate 3T3 cells at 37° C., 5% CO2 for about 24 hours. Starvation medium is used in this stage. The 24-hour-cultured 3T3 cells are rinsed with sterile D-PBS and discarded rinse buffer. Controls and testing materials in different concentrations are respectively added into the 3T3 cells in 24 well plates. Then, the 3T3 cells are incubated at 37° C., with 5% CO2 for about 72 hours. After incubating for about 72 hours, transfer some supernatant of cells treated with controls and testing materials into new containers. Centrifuge the supernatants at 2000 rpm for 5˜10 minutes. The hyaluronic acid content of the centrifuged supernatants are respectively determined by Hyaluronan Enzyme-Linked Immunosorbent Assay Kit, and calculated with the following Formula 1. [formula] In this example, we try another brand HA-ELISA kit (R&D; Cat No. DHYAL0) to figure out the reproducibility of the stimulatory effect. Excluding replacing the HA-ELISA kit, the materials and the procedures can be referred to the above Example 1. In this example, we try to figure out whether the stimulatory effect also can be found on ascorbic acid. Excluding replacing the HA-ELISA kit to another brand HA-ELISA kit (R&D; Cat No. DHYAL0) and replacing the testing material to ascorbic acid, the other materials and the procedures can be referred to the above Example 1.

Where “and” joins values, the source holds several entries; their conditions need not be identical. Equal values may be shown once. Entries after “also recorded” stand apart in the source; their conditions may differ.

Take `O=C1O[C@H]([C@@H](O)CO)C(O)=C1O` [Ascorbic Acid, ascorbic acid]: the “stimulation of hyaluronic acid production (in words)” value (2-100 ppm, comparing to the negative control) was “can NOT stimulate hyaluronic acid production; also recorded: cannot be helpful”. Besides, the “Hyaluronic Acid Content Stimulated, Average” value stood at 94% (2 ppm), 101% (10 ppm), 102% (50 ppm) and 91% (100 ppm). Further, the “Hyaluronic Acid Content Stimulated, single entries” value was 99% and 64% and 119% (2 ppm); 93% and 108% and 101% (10 ppm); 105% and 100% and 102% (50 ppm); 87% and 93% and 94% (100 ppm).
